Results from patent publication US20070161637A1, “Substituted pyridin-2-ylamine analogues” (Neurogen Corporation, priority 2003, published 2007).

Biological target: T1, human capsaicin receptor (Homo sapiens, UniProt Q8NER1)
T1 construct: transfected with the pBK-CMV expression construct encoding the full length human capsaicin receptor; expressed in transfected cells; host or cells: HEK293, stably transfected clonal lines, plasmid pBK-CMV
Assay: Calcium mobilization assay, determination of antagonist activity (Example 6)
Assay type: cell-based
Details: concentration giving 50% decrease in the fluorescence response of cells expressing human capsaicin receptor exposed to capsaicin
Procedure: A cDNA encoding full length human capsaicin receptor (SEQ ID NO:1, 2 or 3 of U.S. Pat. No. 6,482,611) was subcloned in the plasmid pBK-CMV (Stratagene, La Jolla, Calif.) for recombinant expression in mammalian cells.
Human embryonic kidney (HEK293) cells were transfected with the pBK-CMV expression construct encoding the full length human capsaicin receptor using standard methods. The transfected cells were selected for two weeks in media containing G418 (400 μg/ml) to obtain a pool of stably transfected cells. Independent clones were isolated from this pool by limiting dilution to obtain clonal stable cell lines for use in subsequent experiments.
Cells transfected with expression plasmids (as described in Example 4) and thereby expressing human capsaicin receptor are seeded and grown to 70-90% confluency in FALCON black-walled, clear-bottomed 96-well plates (#3904, BECTON-DICKINSON, Franklin Lakes, N.J.). The culture medium is emptied from the 96 well plates and FLUO-3 AM calcium sensitive dye (Molecular Probes, Eugene, Oreg.) is added to each well (dye solution: 1 mg FLUO-3 AM, 440 μL DMSO and 440 μl 20% pluronic acid in DMSO, diluted 1:250 in Krebs-Ringer HEPES (KRH) buffer (25 mM HEPES, 5 mM KCl, 0.96 mM NaH2PO4, 1 mM MgSO4, 2 mM CaCl2, 5 mM glucose, 1 mM probenecid, pH 7.4), 50 μl diluted solution per well). Plates are covered with aluminum foil and incubated at 37° C. for 1-2 hours in an environment containing 5% CO2. After the incubation, the dye is emptied from the plates, and the cells are washed once with KRH buffer, and resuspended in KRH buffer.
To measure the ability of a test compound to agonize or antagonize a calcium mobilization response in cells expressing capsaicin receptors to capsaicin or other vanilloid agonist, the EC50 of the agonist capsaicin is first determined. An additional 20 μl of KRH buffer and 1 μl DMSO is added to each well of cells, prepared as described above. 100 μl capsaicin in KRH buffer is automatically transferred by the FLIPR instrument to each well. Capsaicin-induced calcium mobilization is monitored using either FLUOROSKAN ASCENT (Labsystems; Franklin, Mass.) or FLIPR (fluorometric imaging plate reader system; Molecular Devices, Sunnyvale, Calif.) instruments. Data obtained between 30 and 60 seconds after agonist application are used to generate an 8-point concentration response curve, with final capsaicin concentrations of 1 nM to 3 μM. […] software (Synergy Software, Reading, Pa.) is used to fit the data to the equation: y=a*(1/(1+(b/x)^c)) to determine the 50% excitatory concentration (EC50) for the response. In this equation, y is the maximum fluorescence signal, x is the concentration of the agonist or antagonist (in this case, capsaicin), a is the Emax, b corresponds to the EC50 value and c is the Hill coefficient. Determination Agonist Activity
Test compounds are dissolved in DMSO, diluted in 20 μl KRH buffer so that the final concentration of test compounds in the assay well is between 1 μM and 5 μM, and added to cells prepared as described above. The 96 well plates containing prepared cells and test compounds are incubated in the dark, at room temperature for 0.5 to 6 hours. It is important that the incubation not continue beyond 6 hours. Just prior to determining the fluorescence response, 100 μl capsaicin in KRH buffer at twice the EC50 concentration determined as described above is automatically added by the FLIPR instrument to each well of the 96 well plate for a final sample volume of 200 μl and a final capsaicin concentration equal to the EC50. The final concentration of test compounds in the assay wells is between 1 μM and 5 μM.

T1 sequence (Q8NER1 whole entry): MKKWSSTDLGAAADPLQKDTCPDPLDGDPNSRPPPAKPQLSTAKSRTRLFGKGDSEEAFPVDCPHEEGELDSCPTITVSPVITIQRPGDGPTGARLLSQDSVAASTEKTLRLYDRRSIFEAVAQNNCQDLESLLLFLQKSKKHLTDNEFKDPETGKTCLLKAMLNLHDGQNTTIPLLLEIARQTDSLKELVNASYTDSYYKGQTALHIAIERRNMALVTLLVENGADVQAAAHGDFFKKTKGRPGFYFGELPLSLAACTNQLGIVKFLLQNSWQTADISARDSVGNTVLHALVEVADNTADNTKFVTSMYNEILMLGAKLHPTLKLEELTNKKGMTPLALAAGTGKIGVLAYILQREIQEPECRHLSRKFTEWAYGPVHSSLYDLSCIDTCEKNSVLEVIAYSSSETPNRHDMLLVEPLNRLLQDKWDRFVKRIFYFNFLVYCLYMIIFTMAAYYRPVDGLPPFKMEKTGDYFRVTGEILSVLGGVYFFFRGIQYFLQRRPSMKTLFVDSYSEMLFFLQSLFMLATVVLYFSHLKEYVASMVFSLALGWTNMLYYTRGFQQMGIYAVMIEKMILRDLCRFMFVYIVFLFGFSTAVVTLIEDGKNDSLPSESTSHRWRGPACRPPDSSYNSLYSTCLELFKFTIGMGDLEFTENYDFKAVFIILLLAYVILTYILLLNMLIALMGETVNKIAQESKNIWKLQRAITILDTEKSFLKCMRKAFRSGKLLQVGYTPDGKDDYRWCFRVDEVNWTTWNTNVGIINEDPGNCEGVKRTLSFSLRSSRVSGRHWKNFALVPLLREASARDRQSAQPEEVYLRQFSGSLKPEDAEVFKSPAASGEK

SMILES | IC50
CN1CCN(c2nc(Nc3ccc(C(C)(C)C)cc3)nc(OCc3ccccc3C(F)(F)F)n2)CC1 [Compound 1, (4-tert-Butyl-phenyl)-[4-(4-methyl-piperazin-1-yl)-6-(2-trifluoromethyl-benzyloxy)-[1,3,5]triazine-2-yl]-amine] | ≤ 1000 nM
COc1ccccc1COc1nc(Cl)nc(Nc2ccc(C(C)(C)C)cc2)n1 [Compound 3, (4-tert-Butyl-phenyl)-[4-chloro-6-(2-methoxy-benzyloxy)-[1,3,5]triazin-2-yl]-amine] | ≤ 1000 nM
CC(C)(C)c1ccc(Nc2nc(Cl)nc(OCc3ccccc3C(F)(F)F)n2)cc1 [Compound 4, (4-tert-Butyl-phenyl)-[4-chloro-6-(2-trifluoromethyl-benzyloxy)-[1,3,5]triazin-2-yl]-amine] | ≤ 1000 nM
CC(C)(C)c1ccc(Nc2nc(Cl)nc(N3CCc4ccccc4C3)n2)cc1 [Compound 5, (4-tert-Butyl-phenyl)-[4-chloro-6-(3,4-dihydro-1H-isoquinolin-2-yl)-[1,3,5]triazin-2-yl]-amine] | ≤ 1000 nM
COc1cc2c(cc1OC)CN(c1nc(Cl)nc(Nc3ccc(C(C)(C)C)cc3)n1)CC2 [Compound 6, (4-tert-Butyl-phenyl)-[4-chloro-6-(6,7-dimethoxy-3,4-dihydro-1H-isoquinolin-2-yl)-[1,3,5]triazin-2-yl]-amine] | ≤ 1000 nM
COc1cc2c(cc1OC)CN(c1nc(Cl)nc(Nc3ccc(C(C)(C)C)cc3)n1)C(C)C2 (stereo not drawn) [Compound 7, (4-tert-Butyl-phenyl)-[4-chloro-6-(6,7-dimethoxy-3-methyl-3,4-dihydro-1H-isoquinolin-2-yl)-[1,3,5]triazin-2-yl]-amine] | ≤ 1000 nM
CC(C)(C)c1ccc(Nc2cc(OCc3ccccc3C(F)(F)F)ncn2)cc1 [Compound 8, (4-tert-Butyl-phenyl)-[6-(2-trifluoromethyl-benzyloxy)-pyrimidin-4-yl]-amine] | ≤ 1000 nM
FC(F)(F)c1ccc(Nc2nc(OCc3ccccc3C(F)(F)F)nc(-c3ccccc3Cl)n2)cc1 [Compound 9, [4-(2-Chloro-phenyl)-6-(2-trifluoromethyl-benzyloxy)-[1,3,5]triazin-2-yl]-(4-trifluoromethyl-phenyl)-amine] | ≤ 1000 nM
FC(F)(F)c1ccc(Nc2nc(OCc3ccccc3C(F)(F)F)nc(-c3ccccc3C(F)(F)F)n2)cc1 [Compound 10, [4-(2-Trifluoromethyl-benzyloxy)-6-(2-trifluoromethyl-phenyl)-[1,3,5]triazin-2-yl]-(4-trifluoromethyl-phenyl)-amine] | ≤ 1000 nM
CC(C)(C)c1ccc(Nc2nc(OCc3ccccc3Cl)nc(OCc3ccccc3Cl)n2)cc1 [Compound 11, [4,6-Bis-(2-chloro-benzyloxy)-[1,3,5]triazin-2-yl]-(4-tert-butyl-phenyl)-amine] | ≤ 1000 nM
CC(C)(C)c1ccc(Nc2nc(OCc3ccccc3F)nc(OCc3ccccc3F)n2)cc1 [Compound 12, [4,6-Bis-(2-fluoro-benzyloxy)-[1,3,5]triazin-2-yl]-(4-tert-butyl-phenyl)-amine] | ≤ 1000 nM
COc1ccccc1COc1nc(Nc2ccc(C(C)(C)C)cc2)nc(OCc2ccccc2OC)n1 [Compound 13, [4,6-Bis-(2-methoxy-benzyloxy)-[1,3,5]triazin-2-yl]-(4-tert-butyl-phenyl)-amine] | ≤ 1000 nM
CC(C)(C)c1ccc(Nc2nc(OCc3ccccc3C(F)(F)F)nc(OCc3ccccc3C(F)(F)F)n2)cc1 [Compound 14, [4,6-Bis-(2-trifluoromethyl-benzyloxy)-[1,3,5]triazin-2-yl]-(4-tert-butyl-phenyl)-amine] | ≤ 1000 nM
FC(F)(F)c1ccc(Nc2nc(OCc3ccccc3C(F)(F)F)nc(OCc3ccccc3C(F)(F)F)n2)cc1 [Compound 15, [4,6-Bis-(2-trifluoromethyl-benzyloxy)-[1,3,5]triazin-2-yl]-(4-trifluoromethyl-phenyl)-amine] | ≤ 1000 nM
CC(C)(C)c1ccc(Nc2nc(OCc3ncccc3Cl)nc(OCc3ncccc3Cl)n2)cc1 [Compound 16, [4,6-Bis-(3-chloro-pyridin-2-ylmethoxy)-[1,3,5]triazin-2-yl]-(4-tert-butyl-phenyl)-amine] | ≤ 1000 nM
CC(C)(C)c1ccc(Nc2nc(OCc3ccccn3)nc(OCc3ccccn3)n2)cc1 [Compound 17, [4,6-Bis-(pyridin-2-ylmethoxy)-[1,3,5]triazin-2-yl]-(4-tert-butyl-phenyl)-amine] | ≤ 1000 nM
FC(F)(F)c1ccc(Nc2nc(Cl)nc(OCc3ccccc3C(F)(F)F)n2)cc1 [Compound 18, [4-Chloro-6-(2-trifluoromethyl-benzyloxy)-[1,3,5]triazin-2-yl]-(4-trifluoromethyl-phenyl)-amine] | ≤ 1000 nM
FC(F)(F)c1ccc(Nc2nc(OCc3ccccc3C(F)(F)F)nc(OC3CCCC3)n2)cc1 [Compound 19, [4-Cyclopentyloxy-6-(2-trifluoromethyl-benzyloxy)-[1,3,5]triazin-2-yl]-(4-trifluoromethyl-phenyl)-amine] | ≤ 1000 nM
CCOc1nc(Nc2ccc(C(F)(F)F)cc2)nc(OCc2ccccc2C(F)(F)F)n1 [Compound 20, [4-Ethoxy-6-(2-trifluoromethyl-benzyloxy)-[1,3,5]triazin-2-yl]-(4-trifluoromethyl-phenyl)-amine] | ≤ 1000 nM
FC(F)(F)c1ccc(Nc2nc(OCc3ccccc3C(F)(F)F)nc(N3CCOCC3)n2)cc1 [Compound 21, [4-Morpholin-4-yl-6-(2-trifluoromethyl-benzyloxy)-[1,3,5]triazin-2-yl]-(4-trifluoromethyl-phenyl)-amine] | ≤ 1000 nM
FC(F)(F)c1ccc(Nc2nc(OCc3ccccc3C(F)(F)F)nc(-c3ccccc3)n2)cc1 [Compound 22, [4-Phenyl-6-(2-trifluoromethyl-benzyloxy)-[1,3,5]triazin-2-yl]-(4-trifluoromethyl-phenyl)-amine] | ≤ 1000 nM
FC(F)(F)c1ccc(Nc2nc(OCc3ccccc3C(F)(F)F)nc(-c3cccnc3)n2)cc1 [Compound 23, [4-Pyridin-3-yl-6-(2-trifluoromethyl-benzyloxy)-[1,3,5]triazin-2-yl]-(4-trifluoromethyl-phenyl)-amine] | ≤ 1000 nM
CC(C)(O)CCNc1nc(Nc2ccc(C(F)(F)F)cc2)nc(OCc2ccccc2C(F)(F)F)n1 [Compound 24, 2-Methyl-4-[4-(2-trifluoromethyl-benzyloxy)-6-(4-trifluoromethyl-phenylamino)-[1,3,5]triazin-2-ylamino]-butan-2-ol] | ≤ 1000 nM
Oc1nc(Nc2ccc(C(F)(F)F)cc2)nc(OCc2ccccc2C(F)(F)F)n1 [Compound 25, 4-(2-Trifluoromethyl-benzyloxy)-6-(4-trifluoromethyl-phenylamino)-[1,3,5]triazin-2-ol] | ≤ 1000 nM
FC(F)(F)c1ccc(Nc2nc(NCCN3CCOCC3)nc(OCc3ccccc3C(F)(F)F)n2)cc1 [Compound 28, N-(2-Morpholin-4-yl-ethyl)-6-(2-trifluoromethyl-benzyloxy)-N′-(4-trifluoromethyl-phenyl)-[1,3,5]triazine-2,4-diamine] | ≤ 1000 nM
CC(C)CCNc1nc(Nc2ccc(C(F)(F)F)cc2)nc(OCc2ccccc2C(F)(F)F)n1 [Compound 29, N-(3-Methyl-butyl)-6-(2-trifluoromethyl-benzyloxy)-N′-(4-trifluoromethyl-phenyl)-[1,3,5]triazine-2,4-diamine] | ≤ 1000 nM
CC(C)(C)c1ccc(Nc2nc(N)nc(OCc3ccccc3Cl)n2)cc1 [Compound 30, N-(4-tert-Butyl-phenyl)-6-(2-chloro-benzyloxy)-[1,3,5]triazine-2,4-diamine] | ≤ 1000 nM
